Test results from US12054480B2, “Compounds for treating cannabinoid toxicity and acute cannabinoid overdose” (MAKScientific, LLC, priority 2020, dated 2024).

How the values were obtained:
male CD-1 mice [1] = experiment: Observation chamber test - CB1 antagonist mediated side effects; format: in vivo, mouse; details: FIG. 1; i.v., 60-minute observation; compared with rimonabant (i.p.)
Procedure: Observation chambers were used to score (count/duration) individual mouse intrinsic behavior. Male CD-1 mice (n=8) were placed in the chambers for 30 minutes to acclimate to the environment. Subjects were dosed i.v with a compound of Formula I-XI along with vehicle control groups and behavior are recorded over a 60-minute period and the results were analyzed. For statistical analysis, measurements were sampled in 5 min bins at the 5-10, 15-20, 25-30, 35-40, 45-50 and 55-60 min time intervals. The scratching response/frequency is defined based on well-established observations. Data was compared with that of rimonabant (i.p). The vehicle control group (vehicle (i.v.)) were included accordingly.

male CD-1 mice [2] = experiment: Reversal of CB1 SPC agonist induced neurotoxicity; format: in vivo, mouse; details: FIGS. 2A-2B; induced by suprapharmacological doses of CB1 SPC agonist AM2201; i.v., 30 min observation
[3] = cited from earlier work

## CCOC(=O)c1ccc(-c2c(CC)c(C(=O)NN3CCCCC3)nn2-c2ccc(Cl)cc2Cl)cc1 [Compound 1, Ethyl 4-(1-(2,4-Dichlorophenyl)-4-Ethyl-3-(Piperidin-1-Ylcarbamoyl)-1H-Pyrazol-5-Yl)Benzoate]
Male CD-1 mice [1]
  side effects (scratching episodes): lesser side effects (scratching episodes) as compared to rimonabant
Male CD-1 mice [2]
  neurotoxic effects: convulsions: blocks
  neurotoxic effects: tremors: blocks

## CCCCCc1cc(O)c2c(c1)OC(C)(C)[C@@H]1CCC(C)=C[C@@H]21 [THC]
[3]; humans
  onset: 30 to 60 min
  time of peak effects: 2 to 4 h
[3]; in some cases
  apparent plasma elimination half-life: > 96 h
